Experimental data taken from ChEMBL document CHEMBL3885881, “DrugMatrix”.
Values joined by “and” are separate entries in the source; they are usually repeats but may differ in a detail not shown here. Identical values can stand only once.

Species on record: Rattus norvegicus
Assay: DrugMatrix - Regimen: Daily Repeat
Assay type: toxicity, organism-based, Sprague-Dawley
Parameters: regimen Daily Repeat, gender Male, age 6-8 weeks
Conditions: in vivo, po, 100 mg/kg, route oral GAVAGE, dose level High, vehicle .5 % CMC; for TOTAL PROTEIN / URIC ACID / ALANINE AMINOTRANSFERASE / ALBUMIN / ALKALINE PHOSPHATASE / ASPARTATE AMINOTRANSFERASE / BLOOD UREA NITROGEN / CARBON DIOXIDE / CHLORIDE / CHOLESTEROL / CREATINE PHOSPHOKINASE / CREATININE / GLUCOSE / LACTATE DEHYDROGENASE / LIPASE / PHOSPHORUS / POTASSIUM / SODIUM / TOTAL BILIRUBIN: tissue Plasma
[1] = 120 h, tissue Blood, time 5 day

Structure (SMILES): CN(C)CCN(Cc1cccs1)c1ccccn1
- TOTAL PROTEIN (72 h, time 3 day): 5.77 G/DL
- URIC ACID (72 h, time 3 day): 0.43 mg/dL
- ABSOLUTE SEGMENTED NEUTROPHIL [1]: 1008.67 CELLS/uL
- BASOPHIL [1]: 0.97% and 0%
- EOSINOPHIL [1]: 0.55% and 0%
- ERYTHROCYTE COUNT [1]: 7.33 x10E6/uL and 5.52 x10E6/uL
- HEMATOCRIT [1]: 45.42% and 34.13%
- HEMOGLOBIN [1]: 14.18 G/DL and 13.07 G/DL
- LEUKOCYTE COUNT [1]: 20.78 x10E3/uL and 14.4 x10E3/uL
- LYMPHOCYTE [1]: 80.47% and 90%
- MEAN CORPUSCULAR HEMOGLOBIN [1]: 19.32 pg and 23.73 pg
- MEAN CORPUSCULAR HEMOGLOBIN CONCENTRATION [1]: 31.2 G/DL and 38.33 G/DL
- MEAN CORPUSCULAR VOLUME [1]: 61.95 fL and 61.97 fL
- MONOCYTE [1]: 3.85% and 3%
- NEUTROPHIL [1]: 12.68% and 7%
- NUCLEATED RED BLOOD CELLS [1]: 0 /100WBC
- PLATELET COUNT [1]: 1277.75 x10E3/uL and 1530.33 x10E3/uL
- ALANINE AMINOTRANSFERASE (120 h, time 5 day): 138.25 u/L and 130.33 u/L
- ALBUMIN (120 h, time 5 day): 3.45 G/DL and 4.23 G/DL
- ALKALINE PHOSPHATASE (120 h, time 5 day): 618 u/L and 531.33 u/L
- ASPARTATE AMINOTRANSFERASE (120 h, time 5 day): 321 u/L and 308.67 u/L
- BLOOD UREA NITROGEN (120 h, time 5 day): 15.75 mg/dL and 15.33 mg/dL
- CARBON DIOXIDE (120 h, time 5 day): 37 mmol/L and 36.67 mmol/L
- CHLORIDE (120 h, time 5 day): 104.75 MEQ/L and 97.67 MEQ/L
- CHOLESTEROL (120 h, time 5 day): 98.5 mg/dL and 113.67 mg/dL
- CREATINE PHOSPHOKINASE (120 h, time 5 day): 398.5 u/L and 603.33 u/L
- CREATININE (120 h, time 5 day): 0.5 mg/dL and 0.25 mg/dL
- GLUCOSE (120 h, time 5 day): 151.25 mg/dL and 120.33 mg/dL
- LACTATE DEHYDROGENASE (120 h, time 5 day): 162.5 u/L and 250.33 u/L
- LIPASE (120 h, time 5 day): 17 u/L and 9.67 u/L
- PHOSPHORUS (120 h, time 5 day): 11.03 mg/dL and 12.1 mg/dL
- POTASSIUM (120 h, time 5 day): 6.62 MEQ/L and 5.82 MEQ/L
- SODIUM (120 h, time 5 day): 151 MEQ/L and 142.77 MEQ/L
- TOTAL BILIRUBIN (120 h, time 5 day): 0.4 mg/dL and 0.37 mg/dL
- TOTAL PROTEIN (120 h, time 5 day): 5.72 G/DL and 6.2 G/DL
- URIC ACID (120 h, time 5 day): 1.07 mg/dL and 0.63 mg/dL
- ABSOLUTE BASOPHIL ([…], tissue Blood, time 14 day): 150 cells/µL
- ABSOLUTE EOSINOPHIL ([…], tissue Blood, time 14 day): 75 cells/µL
- ABSOLUTE LYMPHOCYTE ([…], tissue Blood, time 14 day): 12900 cells/µL
- ABSOLUTE MONOCYTE ([…], tissue Blood, time 14 day): 390 cells/µL
- BASOPHIL ([…], tissue Blood, time 14 day): 0.77%
- EOSINOPHIL ([…], tissue Blood, time 14 day): 0.5%
- ERYTHROCYTE COUNT ([…], tissue Blood, time 14 day): 8.39 x10E6/uL
- HEMATOCRIT ([…], tissue Blood, time 14 day): 49.5%
- HEMOGLOBIN ([…], tissue Blood, time 14 day): 15.85 G/DL
- LEUKOCYTE COUNT ([…], tissue Blood, time 14 day): 15.58 x10E3/uL
- LYMPHOCYTE ([…], tissue Blood, time 14 day): 82.28%
- MEAN CORPUSCULAR HEMOGLOBIN ([…], tissue Blood, time 14 day): 18.95 pg
- MEAN CORPUSCULAR HEMOGLOBIN CONCENTRATION ([…], tissue Blood, time 14 day): 32.1 G/DL
- MEAN CORPUSCULAR VOLUME ([…], tissue Blood, time 14 day): 59.02 fL
- MONOCYTE ([…], tissue Blood, time 14 day): 2.45%
- NEUTROPHIL ([…], tissue Blood, time 14 day): 12.85%
- PLATELET COUNT ([…], tissue Blood, time 14 day): 1440.5 x10E3/uL
- ALANINE AMINOTRANSFERASE ([…], time 14 day): 70.83 u/L
- ALBUMIN ([…], time 14 day): 3.47 G/DL
- ALKALINE PHOSPHATASE ([…], time 14 day): 569.83 u/L
- ASPARTATE AMINOTRANSFERASE ([…], time 14 day): 277.5 u/L
- BLOOD UREA NITROGEN ([…], time 14 day): 17.17 mg/dL
- CARBON DIOXIDE ([…], time 14 day): 33.83 mmol/L
- CHLORIDE ([…], time 14 day): 106.33 MEQ/L
- CHOLESTEROL ([…], time 14 day): 60.17 mg/dL
- CREATINE PHOSPHOKINASE ([…], time 14 day): 264.5 u/L
- CREATININE ([…], time 14 day): 0.7 mg/dL
- GLUCOSE ([…], time 14 day): 134.5 mg/dL
- LACTATE DEHYDROGENASE ([…], time 14 day): 165.67 u/L
- LIPASE ([…], time 14 day): 22.2 u/L
- PHOSPHORUS ([…], time 14 day): 11.25 mg/dL
- POTASSIUM ([…], time 14 day): 6.93 MEQ/L
- SODIUM ([…], time 14 day): 150.83 MEQ/L
- TOTAL BILIRUBIN ([…], time 14 day): 0.65 mg/dL
- TOTAL PROTEIN ([…], time 14 day): 5.93 G/DL
- URIC ACID ([…], time 14 day): 1.82 mg/dL
